Test results published in patent publication US7179821B2, “Method of treating of demyelinating diseases or conditions” (Aventis Pharmaceuticals Inc., priority 2001, dated 2007).
Values joined by “and” are separate entries in the source; they are usually repeats but may differ in a detail not shown here. Identical values can stand only once.

Columns and labels:
mouse pMCAO stroke model = test: Mouse pMCAO stroke model, infarct volume; format: in vivo; conditions: −60 min (one hour prior to occlusion), infarct volume 24 hours later, vs vehicle treated mice
Method: Methods: The experimental procedure was based on the method of Bachauβ et al (1992). Male CD-1 mice weighing 35–40 g were anaesthetized with chloral hydrate (400 mg/kg). Under an operating microscope, a 3 mm vertical skin incision was made 2 mm behind the right orbit. The temporal muscle was deflected and a small craniotomy carried out to expose the dura. The dura was incised and deflected and the distal part of the right […] exposed. The artery was occluded upstream to the main bifurcation by bipolar electroagulation with fine forceps. Infarct volume was measured 24 hours later using 2% triphenyltetrazolium chloride solution. In this experimental paradigm, HP 184 was orally administered to non-fasted mice (10 per group) one hour prior to occlusion. Infarct volume reduction was based on comparison to 1% acetic acid, vehicle, treated mice.

[1] = tested on: mechanical hyperalgesia after nerve ligation; test: Neuropathic pain model, spinal nerve constriction, von Frey paw withdrawal threshold; format: in vivo, rat; conditions: 20 mg/kg po, tested 3 hours after dosing
Method: Adult male Sprague-Dawley rats received unilateral constriction of the L6 nerve to produce chronic nerve injury. Following recovery from surgery (3–7 days post operative) animals were tested for paw withdrawal threshold to mechanical stimuli applied to the affected paw. This was determined by the application of calibrated von Frey monofilaments to the plantar surface of each hindpaw. Only animals with a 50% decrease in withdrawal threshold in the ligated paw were employed in the study, and were randomly assigned to one of 6 groups: three groups receiving one of three doses of HP 184 (0.3, 3 and 20 mg/kg, po), a fourth group receiving a single dose of another compound referred to MDL (10 mg/kg, ip), a fifth group receiving gabapentin (90 mg/kg, sc), and a sixth group receiving vehicle only. Behavioral testing occurred 45 minutes following the gabapentin (90 mg/kg, sc), and 3 hours following the HP 184, MDL, and vehicle. A difference score between the ligated and non-ligated paw withdrawal thresholds is calculated for each animal, and these differences were subjected to ANOVA with group as the main factor. […] Analysis was between/within repeated measures ANOVA. […]

[2] = tested on: demyelinated area at the moderate compression injury site; test: Histological study of spinal cords, demyelinated area (luxol fast blue); format: in vivo, rat
Method: A study to test whether the treatment with HP184 affected the amount of myelin in rats with moderate long term spinal cord crush injury when administered long after spinal cord injury.
The spinal cords from rats described above in the assessment were used for this study.
(50–60 mg/kg body weight, i.p.) and perfused transcardically—first with 100 mL 0.05M phosphate buffed saline (PBS) containing 0.1% heparin, followed by 300–500 mL of 4% paraformaldehyde (PFA). Segments T9 to L1 of the spinal cords were taken out, then cryo-protected in 30% sucrose solution and frozen at −70° C. in 10.24% polyvinyl alcohol and 4.26% polyethylene glycol.
A segment of each cord including the lesion site plus 10 mm rostral and caudal to the lesion site was embedded in Tissue Tek medium. Serial sections were cut longitudinally at 20 μm intervals on a cryostat. Every third section was stained with luxol fast blue for myelin. The evaluation was performed by observers blinded as to treatment, on coded slides. Sections were examined under a light microscope for the extent of demyelination (the area without luxol fast blue staining).
For determinations of the maximal demyelinated area of the cord, the whole section was digitized on photographs using a Zeiss microscope. The extent of demyelination was measured at the lesion center using a computerized Bioquant BQ-TCW98 image analysis progrem by an investigator who was blind to treatment group.
Statistical analysis was performed on a Macintosh computer using GB-Stat ppc 6.5.2. The histological results were analyzed by the Kruskal-Wallis nonparametric analysis of variance (ANOVA). Post hoc comparisons were made using Mann-Whitney U tests.

[3] = tested on: photothrombotic cerebral lesion; test: Edema after photothrombotic cerebral lesion in the rat; format: in vivo
Method: Method: Male Sprague Dawley rats (180–200 g bw) were anaesthetized with chloral hydrate (400 mg/kg ip) and placed in a stereotaxic apparatus. The skin was opened to reveal the skull and a cold light (Bioblock 150 W) was placed in contact with the right side of the skull forward of lambda. Bengal rose dye (10 mg/kg iv in saline) was administered intravenously and illumination of the skull started immediately and continued for 5 minutes. The skin was then sutured closed over the skull and the animal returned to its cage. Twenty-four hours after the photothrombotic lesion animals received HP184 made up in 1% tween in water by intravenous route at 0, 10 or 20 mg/kg body weight in a volume of 5 ml/kg. One hour later, animals were killed by decapitation and their brains removed (see appendix for protocol). Core samples were taken at the site of the lesion, and contralateral to the lesion, using a 6 mm diameter cork borer. Water content was determined by wet weight of tissue/dry weight of tissue and edema expressed as % excess water on lesioned sample compared with sample from contralateral hemisphere for each rat.

[4] = tested on: voltage-dependent K+ channels; test: Potassium channel currents in PC12 cells, patch clamp; format: cell-based; conditions: 10 μM, 200 msec clamp pulses to +40 mV from −80 mV, n=4
Method: PC12 cells (ATCC, Rockville, Md.) were grown in Dulbecco's modified Eagle's media supplemented with 10% fetal bovine serum (GIBCO BRL Grand Island, N.Y.). Potassium channel currents were measured using standard patch clamp electrophysiolgy protocols as detailed previously (Rampe et al., 1998).
Potassium channel currents were elicited by 200 msec clamp pulses to +40 mV from a holding potential of −80 mV. […] Application of HP184 (10 μM) reduced the amplitude of this current and enhanced the rate of current decay. When current was measured at the end of the pulse, HP184 reduced current amplitude by 75±4% (n=4). The results are consisent with the notion that HP184 acts as an antagonist of voltage-dependent K^+ channels by blocking an activated state.

NO production = test: LPS-induced NO production in mice, plasma nitrate by Griess assay; format: in vivo, mouse; conditions: 30 mg/kg ip 30 minutes prior to LPS 3 mg/kg ip, plasma 5 hours after LPS
Method: Mice were injected with 30 mg/kg HP 184 (ip) 30 minutes prior to LPS (3 mg/kg, ip). Mice were sacrificed 5 hours after LPS injection, and plasma collected. Nitrate levels were determined by the Griess assay. Groups were composed of 9–10 mice each.

[5] = tested on: moderate chronic (35 days post-injury) spinal cord crush; test: Long standing moderate spinal cord crush (35 days), OFT score; format: in vivo, rat; conditions: 3 mg/kg po, thirty-five days after moderate injury, single dose then daily for 4 more days

Q: How did the “% infarct volume reduction mean sem” value (mouse pMCAO stroke model; 1 mg/kg po) turn out when `CCCN(c1ccncc1F)n1cc(C)c2ccccc21` [HP184, N-(3-fluoro-4-pyridinyl)-N-propyl-3-methyl-1H-indole-1-amine] was run?
A: 21 ± 3%

Q: What about the “% infarct volume reduction mean sem” value (mouse pMCAO stroke model; 10 mg/kg po) of the same molecule?
A: 40 ± 2.5 % and 32 ± 11 %

Q: What about the “mechanical hyperalgesia, difference of ligated minus normal paw withdrawal threshold, FIG. 10” value [1] of the same molecule?
A: dose-response attentuation of L5 ligation mechanical hyperlagesia

Q: What about the “extent of demyelination, comparison of the groups” value ([2]; 3 mg/kg po) of the same molecule?
A: showed the least demyelination

Q: What about the “myelin at the site of injury” value ([2]; 3 mg/kg/day by oral gavage from 35 to 41 days after moderate crush injury) of the same molecule?
A: more myelin at the site of injury

Q: What about the “myelinated / demyelinated area at the crush center, FIG. 7” value ([2]; HP184 0.3, 1 or 3 mg/kg po or 4-AP 0.6 mg/kg ip, days 35–42 after moderate crush) of the same molecule?
A: significantly greater myelinated area than that of saline controls

Q: And the “edema (% excess water) at 25 h post lesion” value ([3]; 10 mg/kg iv at 24 h post lesion)?
A: 3.61 ± 0.23 ns % excess water

Q: And the “edema (% excess water) at 25 h post lesion” value ([3]; 20 mg/kg iv at 24 h post lesion)?
A: 3.20 ± 0.27 % excess water

Q: And the “reduction of the edema in the right cerebral cortex” value ([3]; 20 mg/kg iv, one hour after administration, 25 hours after lesion)?
A: 22%

Q: What about the “reduction of current amplitude at the end of the pulse” value [4] of the same molecule?
A: 75±4%

Q: What about the “NO production (plasma nitrate), FIG. 9” value (NO production) of the same molecule?
A: inhibits NO production

Q: What about the “motor recovery, Open Field Walking Test” value [5] of the same molecule?
A: improves motor recovery after a single dose
